{"source": "the supplement of paper PMC10307832", "assay_in_all_cases": "relative viability (nuclei count vs DMSO), 5 days (fraction); higher = more cells survive", "key": {"[1]": {"system": "NCI-H1792", "how_it_was_run": "(§1)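 Relative viability equals treated-well nuclei counts divided by vehicle-well nuclei counts. Counts came from 4× images of lung cancer cell lines grown in 1536-well plates for 5 days after pin-tool dosing on the day after seeding. Dosing used one drug alone or a fixed anchor-drug dose plus five library-drug doses (not always all listed) in √10 steps, and values are medians of duplicate plates.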"}, "[2]": {"system": "NCI-H460", "how_it_was_run": "as §1"}, "[3]": {"system": "NCI-H2023", "how_it_was_run": "as §1"}, "[4]": {"system": "PC-3 [JPC-3]", "how_it_was_run": "as §1"}, "[5]": {"system": "NCI-H1651", "how_it_was_run": "as §1"}, "[6]": {"system": "201T", "how_it_was_run": "as §1"}, "[7]": {"system": "LCLC-97TM1", "how_it_was_run": "as §1"}, "[8]": {"system": "NCI-H1650", "how_it_was_run": "as §1"}, "[9]": {"system": "NCI-H596", "how_it_was_run": "as §1"}, "[10]": {"system": "NCI-H727", "how_it_was_run": "as §1"}, "[11]": {"system": "A-427", "how_it_was_run": "as §1"}, "[12]": {"system": "NCI-H520", "how_it_was_run": "as §1"}, "[13]": {"system": "CAL-12T", "how_it_was_run": "as §1"}, "[14]": {"system": "H3255", "how_it_was_run": "as §1"}, "[15]": {"system": "NCI-H1944", "how_it_was_run": "as §1"}, "[16]": {"system": "NCI-H2087", "how_it_was_run": "as §1"}, "[17]": {"system": "NCI-H1915", "how_it_was_run": "as §1"}, "[18]": {"system": "BEN", "how_it_was_run": "as §1"}, "[19]": {"system": "NCI-H661", "how_it_was_run": "as §1"}, "[20]": {"system": "NCI-H650", "how_it_was_run": "as §1"}, "[21]": {"system": "NCI-H441", "how_it_was_run": "as §1"}, "[22]": {"system": "LC-2-ad", "how_it_was_run": "as §1"}, "[23]": {"system": "ABC-1", "how_it_was_run": "as §1"}}}
{"compound": "Oc1nc(-c2ccc(C(F)(F)F)cc2)nc2c1CSCC2", "note": "[XAV939] + N=C(N)NC(=N)NCCc1ccccc1 [Phenformin] (partner 250 µM)", "values": [{"measurement": "relative viability", "setting": "[1]; first compound 0.08 µM", "value": 0.432}, {"measurement": "relative viability", "setting": "[1]; first compound 0.253 µM", "value": 0.308}, {"measurement": "relative viability", "setting": "[1]; first compound 0.8 µM", "value": 0.303}, {"measurement": "relative viability", "setting": "[1]; first compound 2.53 µM", "value": 0.331}, {"measurement": "relative viability", "setting": "[2]; first compound 0.08 µM", "value": 0.526}, {"measurement": "relative viability", "setting": "[2]; first compound 0.253 µM", "value": 0.408}, {"measurement": "relative viability", "setting": "[2]; first compound 0.8 µM", "value": 0.53}, {"measurement": "relative viability", "setting": "[2]; first compound 2.53 µM", "value": 0.502}, {"measurement": "relative viability", "setting": "[3]; first compound 0.08 µM", "value": 0.424}, {"measurement": "relative viability", "setting": "[3]; first compound 0.253 µM", "value": 0.391}, {"measurement": "relative viability", "setting": "[3]; first compound 0.8 µM", "value": 0.365}, {"measurement": "relative viability", "setting": "[3]; first compound 2.53 µM", "value": 0.402}, {"measurement": "relative viability", "setting": "[4]; first compound 0.08 µM", "value": 0.441}, {"measurement": "relative viability", "setting": "[4]; first compound 0.253 µM", "value": 0.466}, {"measurement": "relative viability", "setting": "[4]; first compound 0.8 µM", "value": 0.474}, {"measurement": "relative viability", "setting": "[4]; first compound 2.53 µM", "value": 0.441}, {"measurement": "relative viability", "setting": "[5]; first compound 0.08 µM", "value": 0.359}, {"measurement": "relative viability", "setting": "[5]; first compound 0.253 µM", "value": 0.31}, {"measurement": "relative viability", "setting": "[5]; first compound 0.8 µM", "value": 0.353}, {"measurement": "relative viability", "setting": "[5]; first compound 2.53 µM", "value": 0.302}, {"measurement": "relative viability", "setting": "[6]; first compound 0.08 µM", "value": 0.475}, {"measurement": "relative viability", "setting": "[6]; first compound 0.253 µM", "value": 0.421}, {"measurement": "relative viability", "setting": "[6]; first compound 0.8 µM", "value": 0.364}, {"measurement": "relative viability", "setting": "[6]; first compound 2.53 µM", "value": 0.421}, {"measurement": "relative viability", "setting": "[7]; first compound 0.08 µM", "value": 0.474}, {"measurement": "relative viability", "setting": "[7]; first compound 0.253 µM", "value": 0.352}, {"measurement": "relative viability", "setting": "[7]; first compound 0.8 µM", "value": 0.434}, {"measurement": "relative viability", "setting": "[7]; first compound 2.53 µM", "value": 0.373}, {"measurement": "relative viability", "setting": "[8]; first compound 0.08 µM", "value": 0.499}, {"measurement": "relative viability", "setting": "[8]; first compound 0.253 µM", "value": 0.456}, {"measurement": "relative viability", "setting": "[8]; first compound 0.8 µM", "value": 0.373}, {"measurement": "relative viability", "setting": "[8]; first compound 2.53 µM", "value": 0.348}, {"measurement": "relative viability", "setting": "[9]; first compound 0.08 µM", "value": 0.699}, {"measurement": "relative viability", "setting": "[9]; first compound 0.253 µM", "value": 0.673}, {"measurement": "relative viability", "setting": "[9]; first compound 0.8 µM", "value": 0.764}, {"measurement": "relative viability", "setting": "[9]; first compound 2.53 µM", "value": 0.774}, {"measurement": "relative viability", "setting": "[10]; first compound 0.08 µM", "value": 0.732}, {"measurement": "relative viability", "setting": "[10]; first compound 0.253 µM", "value": 0.353}, {"measurement": "relative viability", "setting": "[10]; first compound 0.8 µM", "value": 0.635}, {"measurement": "relative viability", "setting": "[10]; first compound 2.53 µM", "value": 0.542}, {"measurement": "relative viability", "setting": "[11]; first compound 0.08 µM", "value": 0.365}, {"measurement": "relative viability", "setting": "[11]; first compound 0.253 µM", "value": 0.328}, {"measurement": "relative viability", "setting": "[11]; first compound 0.8 µM", "value": 0.314}, {"measurement": "relative viability", "setting": "[11]; first compound 2.53 µM", "value": 0.294}, {"measurement": "relative viability", "setting": "[12]; first compound 0.08 µM", "value": 0.58}, {"measurement": "relative viability", "setting": "[12]; first compound 0.253 µM", "value": 0.51}, {"measurement": "relative viability", "setting": "[12]; first compound 0.8 µM", "value": 0.526}, {"measurement": "relative viability", "setting": "[12]; first compound 2.53 µM", "value": 0.401}, {"measurement": "relative viability", "setting": "[13]; first compound 0.08 µM", "value": 0.592}, {"measurement": "relative viability", "setting": "[13]; first compound 0.253 µM", "value": 0.507}, {"measurement": "relative viability", "setting": "[13]; first compound 0.8 µM", "value": 0.46}, {"measurement": "relative viability", "setting": "[13]; first compound 2.53 µM", "value": 0.417}, {"measurement": "relative viability", "setting": "[14]; first compound 0.08 µM", "value": 0.415}, {"measurement": "relative viability", "setting": "[14]; first compound 0.253 µM", "value": 0.397}, {"measurement": "relative viability", "setting": "[14]; first compound 0.8 µM", "value": 0.381}, {"measurement": "relative viability", "setting": "[14]; first compound 2.53 µM", "value": 0.375}, {"measurement": "relative viability", "setting": "[15]; first compound 0.08 µM", "value": 0.233}, {"measurement": "relative viability", "setting": "[15]; first compound 0.253 µM", "value": 0.198}, {"measurement": "relative viability", "setting": "[15]; first compound 0.8 µM", "value": 0.199}, {"measurement": "relative viability", "setting": "[15]; first compound 2.53 µM", "value": 0.17}, {"measurement": "relative viability", "setting": "[16]; first compound 0.08 µM", "value": 0.6}, {"measurement": "relative viability", "setting": "[16]; first compound 0.253 µM", "value": 0.455}, {"measurement": "relative viability", "setting": "[16]; first compound 0.8 µM", "value": 0.433}, {"measurement": "relative viability", "setting": "[16]; first compound 2.53 µM", "value": 0.395}, {"measurement": "relative viability", "setting": "[17]; first compound 0.08 µM", "value": 0.384}, {"measurement": "relative viability", "setting": "[17]; first compound 0.253 µM", "value": 0.258}, {"measurement": "relative viability", "setting": "[17]; first compound 0.8 µM", "value": 0.377}, {"measurement": "relative viability", "setting": "[17]; first compound 2.53 µM", "value": 0.369}, {"measurement": "relative viability", "setting": "[18]; first compound 0.08 µM", "value": 0.245}, {"measurement": "relative viability", "setting": "[18]; first compound 0.253 µM", "value": 0.226}, {"measurement": "relative viability", "setting": "[18]; first compound 0.8 µM", "value": 0.264}, {"measurement": "relative viability", "setting": "[18]; first compound 2.53 µM", "value": 0.243}, {"measurement": "relative viability", "setting": "[19]; first compound 0.08 µM", "value": 0.277}, {"measurement": "relative viability", "setting": "[19]; first compound 0.253 µM", "value": 0.272}, {"measurement": "relative viability", "setting": "[19]; first compound 0.8 µM", "value": 0.281}, {"measurement": "relative viability", "setting": "[19]; first compound 2.53 µM", "value": 0.267}, {"measurement": "relative viability", "setting": "[20]; first compound 0.08 µM", "value": 0.474}, {"measurement": "relative viability", "setting": "[20]; first compound 0.253 µM", "value": 0.494}, {"measurement": "relative viability", "setting": "[20]; first compound 0.8 µM", "value": 0.439}, {"measurement": "relative viability", "setting": "[20]; first compound 2.53 µM", "value": 0.414}, {"measurement": "relative viability", "setting": "[21]; first compound 0.08 µM", "value": 0.856}, {"measurement": "relative viability", "setting": "[21]; first compound 0.253 µM", "value": 0.861}, {"measurement": "relative viability", "setting": "[21]; first compound 0.8 µM", "value": 1}, {"measurement": "relative viability", "setting": "[21]; first compound 2.53 µM", "value": 0.851}, {"measurement": "relative viability", "setting": "[22]; first compound 0.08 µM", "value": 0.638}, {"measurement": "relative viability", "setting": "[22]; first compound 0.253 µM", "value": 0.571}, {"measurement": "relative viability", "setting": "[22]; first compound 0.8 µM", "value": 0.569}, {"measurement": "relative viability", "setting": "[22]; first compound 2.53 µM", "value": 0.575}, {"measurement": "relative viability", "setting": "[23]; first compound 0.08 µM", "value": 0.212}, {"measurement": "relative viability", "setting": "[23]; first compound 0.253 µM", "value": 0.272}, {"measurement": "relative viability", "setting": "[23]; first compound 0.8 µM", "value": 0.256}, {"measurement": "relative viability", "setting": "[23]; first compound 2.53 µM", "value": 0.233}]}
